{"source": "patent US9957219B2", "about": "“Antidiabetic bicyclic compounds” (Merck Sharp & Dohme Corp., priority 2013, dated 2018)", "data": [{"molecular_target": "T1, Human GPR40 (Homo sapiens, UniProt O14842)", "T1 sequence (O14842 whole entry)": "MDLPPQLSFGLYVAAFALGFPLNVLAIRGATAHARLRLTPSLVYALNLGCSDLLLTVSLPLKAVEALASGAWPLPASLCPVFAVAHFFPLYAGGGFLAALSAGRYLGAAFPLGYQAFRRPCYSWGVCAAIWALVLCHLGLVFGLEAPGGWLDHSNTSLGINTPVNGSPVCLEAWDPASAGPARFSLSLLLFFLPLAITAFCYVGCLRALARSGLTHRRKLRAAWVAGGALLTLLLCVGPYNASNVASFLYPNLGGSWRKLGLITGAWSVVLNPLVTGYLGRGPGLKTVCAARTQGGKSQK", "experiment": "Inositol Phosphate Turnover (IP1) assay in HEK cells stably expressing human GPR40", "assay_type": "cell-based", "parameters": "expressed in transfected cells; host or cells: HEK cells stably expressing the aequorin reporter", "description": "(§1) Human and mouse GPR40 stable cell-lines were generated in CHO cells stably expressing NFAT BLA (Beta-lactamase). A human GPR40 stable cell-line was generated in HEK cells stably expressing the acquorin expressing reporter. The expression plasmids were transfected using lipofectamine (Life Technologies) following manufacturer's instructions. Stable cell-lines were generated following drug selection.\nThe assay was performed in 96-well format. HEK cells stably expressing human GPR40 were plated to be 60-80% confluent within 72 h. After 72 h, the plates were aspirated and the cells washed with inositol-free DMEM (ICN). The wash media was replaced with 150 μL of 3H-inositol labeling media (inositol-free media containing 0.4% human albumin or 0.4% mouse albumin, 1× pen/strep antibiotics, glutamine, 25 mM HEPES to which was added 3H-myo-inositol NEN #NET114A 1 mCi/mL, 25 Ci/mmol diluted 1:150 in loading media with a final specific radioactivity of 1 μCi/150 μL). Alternatively, the human and mouse albumin were added after the overnight labeling step before the addition of LiCl.\nThe assay was typically run the next day after 18 h labeling. On the day of the assay, 5 μL of 300 mM LiCl were added to all wells and incubated at 37 degrees for 20 min. 0.75 μL of 200× compounds were added and incubated with the cells for 60 min at 37 degrees. The media was then aspirated off and the assay terminated with the addition of 60 μL 10 mM formic acid. The cells were lysed for 60 min at room temperature. 15-30 μL of lysate was mixed with 70 μL/1 mg YSi SPA beads (Amersham) in clear bottom Isoplates. The plates were shaken for 2 h at room temperature. Beads were allowed to settle and the plates are counted in the Wallac Microbeta.", "units": {"EC50": "nM"}, "values": [{"smiles": "COc1ccc(F)c(-c2ccc3c(c2)CC[C@H]3Oc2cccc([C@@H](CC(=O)O)C3CC3)c2)c1", "note": "[Example 1]", "EC50": 64}, {"smiles": "COc1ccc(F)c(-c2ccc3c(c2)CC[C@H]3Oc2cccc([C@H](C3CC3)[C@H](C)C(=O)O)c2)c1", "note": "[Example 2]", "EC50": 2.9}, {"smiles": "COc1ccc(F)c(-c2ccc3c(c2)CC[C@H]3Oc2cccc([C@H](C3CC3)[C@H](C)C(=O)O)c2F)c1", "note": "[Example 4]", "EC50": 2.8}, {"smiles": "COc1ccc(F)c(-c2ccc3c(c2)CC[C@H]3Oc2cccc([C@H](C3CC3)[C@@H](C)C(=O)O)c2F)c1", "note": "[Example 5]", "EC50": 154}, {"smiles": "COc1ccc(F)c(-c2ccc3c(c2C#N)CC[C@H]3Oc2cccc([C@@H](CC(=O)O)C3CC3)c2)c1", "note": "[Example 30]", "EC50": 412}, {"smiles": "COc1ccc(F)c(-c2cc(F)c3c(c2)CC[C@H]3Oc2cccc([C@@H](CC(=O)O)C3CC3)c2)c1", "note": "[Example 31]", "EC50": 2160}, {"smiles": "COc1ccc(F)c(-c2ccc3c(c2F)CC[C@H]3Oc2cccc([C@H](C3CC3)[C@H](C)C(=O)O)c2)c1", "note": "[Example 32]", "EC50": 4.5}, {"smiles": "COc1ccc(F)c(-c2cc3c(cc2F)[C@H](Oc2cccc([C@@H](CC(=O)O)C4CC4)c2)CC3)c1", "note": "[Example 33]", "EC50": 155}, {"smiles": "COc1ccc(F)c(-c2ccc3c(c2F)CC[C@H]3Oc2cccc([C@@H](CC(=O)O)C3CC3)c2)c1", "note": "[Example 34]", "EC50": 107}, {"smiles": "C[C@H](C(=O)O)[C@H](c1cccc(O[C@@H]2CCc3cc(-c4cc(O)ccc4F)ccc32)c1)C1CC1", "note": "[Example 35]", "EC50": 2.9}, {"smiles": "COc1ccc(F)c(-c2ccc3c(c2Cl)CC[C@H]3Oc2cccc([C@@H](CC(=O)O)C3CC3)c2)c1", "note": "[Example 36]", "EC50": 357}, {"smiles": "COc1ccc(F)c(-c2ccc3c(c2-c2cccc4ccn(C)c24)CC[C@H]3Oc2cccc([C@H](C3CC3)[C@H](C)C(=O)O)c2)c1", "note": "[Example 37]", "EC50": 145}, {"smiles": "COc1ccc(F)c(-c2ccc3c(n2)CC[C@H]3Oc2cccc([C@@H](CC(=O)O)C3CC3)c2)c1", "note": "[Example 38]", "EC50": 895}, {"smiles": "COc1ccc(F)c(-c2cc3c(cc2F)[C@H](Oc2cccc([C@@H](CC(=O)O)C4CC4)c2)CC3)c1", "note": "[Example 39]", "EC50": 151}, {"smiles": "COc1ccc(F)c(-c2cnc3c(c2)CC[C@H]3Oc2cccc([C@H](C3CC3)[C@H](C)C(=O)O)c2)c1", "note": "[Example 40]", "EC50": 91}, {"smiles": "COc1ccc(F)c(-c2cc3c(cn2)[C@H](Oc2cccc([C@H](C4CC4)[C@H](C)C(=O)O)c2)CC3)c1", "note": "[Example 41]", "EC50": 15}]}, {"molecular_target": "T1, Human GPR40", "experiment": "FLIPR assay, agonist-induced calcium mobilization in GPR40/CHO NFAT BLA cells", "assay_type": "cell-based", "parameters": "expressed in transfected cells", "description": "as §1\nFLIPR (Fluorimetric Imaging Plate Reader, Molecular Devices) assays were performed to measure agonist-induced calcium mobilization of the stable clones. For the FLIPR assay, one day before assay, GPR40/CHO NFAT BLA cells were seeded into black-wall-clear-bottom 384-well plates (Costar) at 1.4×10e4 cells/20 μL medium/well. The cells were incubated with 20 μl/well of the assay buffer (HBSS, 0.1% BSA, 20 mM HEPES, 2.5 mM probenecid, pH 7.4) containing 8 μM fluo-4, AM, 0.08% pluronic acid at room temperature for 100 minutes. Fluorescence output was measured using FLIPR. Compounds were dissolved in DMSO and diluted to desired concentrations with assay buffer. 13.3 μL/well of compound solution was added.", "units": {"EC50": "nM"}, "values": [{"smiles": "COc1ccc(F)c(-c2ccc3c(c2)CC[C@H]3Oc2cccc([C@@H](CC(=O)O)C3CC3)c2)c1", "note": "[Example 1]", "EC50": 2}, {"smiles": "COc1ccc(F)c(-c2ccc3c(c2)CC[C@H]3Oc2cccc([C@H](C3CC3)[C@H](C)C(=O)O)c2)c1", "note": "[Example 2]", "EC50": 0.4}, {"smiles": "COc1ccc(F)c(-c2ccc3c(c2)CC[C@H]3Oc2cccc([C@H](C3CC3)[C@H](C)C(=O)O)c2F)c1", "note": "[Example 4]", "EC50": 0.2}, {"smiles": "COc1ccc(F)c(-c2ccc3c(c2)CC[C@H]3Oc2cccc([C@H](C3CC3)[C@@H](C)C(=O)O)c2F)c1", "note": "[Example 5]", "EC50": 8}, {"smiles": "COc1ccc(F)c(-c2ccc3c(c2C#N)CC[C@H]3Oc2cccc([C@@H](CC(=O)O)C3CC3)c2)c1", "note": "[Example 30]", "EC50": 22}, {"smiles": "COc1ccc(F)c(-c2cc(F)c3c(c2)CC[C@H]3Oc2cccc([C@@H](CC(=O)O)C3CC3)c2)c1", "note": "[Example 31]", "EC50": 36}, {"smiles": "COc1ccc(F)c(-c2ccc3c(c2F)CC[C@H]3Oc2cccc([C@H](C3CC3)[C@H](C)C(=O)O)c2)c1", "note": "[Example 32]", "EC50": 0.4}, {"smiles": "COc1ccc(F)c(-c2cc3c(cc2F)[C@H](Oc2cccc([C@@H](CC(=O)O)C4CC4)c2)CC3)c1", "note": "[Example 33]", "EC50": 12}, {"smiles": "COc1ccc(F)c(-c2ccc3c(c2F)CC[C@H]3Oc2cccc([C@@H](CC(=O)O)C3CC3)c2)c1", "note": "[Example 34]", "EC50": 4}, {"smiles": "C[C@H](C(=O)O)[C@H](c1cccc(O[C@@H]2CCc3cc(-c4cc(O)ccc4F)ccc32)c1)C1CC1", "note": "[Example 35]", "EC50": 0.2}, {"smiles": "COc1ccc(F)c(-c2ccc3c(c2Cl)CC[C@H]3Oc2cccc([C@@H](CC(=O)O)C3CC3)c2)c1", "note": "[Example 36]", "EC50": 7}, {"smiles": "COc1ccc(F)c(-c2ccc3c(c2-c2cccc4ccn(C)c24)CC[C@H]3Oc2cccc([C@H](C3CC3)[C@H](C)C(=O)O)c2)c1", "note": "[Example 37]", "EC50": 1}, {"smiles": "COc1ccc(F)c(-c2ccc3c(n2)CC[C@H]3Oc2cccc([C@@H](CC(=O)O)C3CC3)c2)c1", "note": "[Example 38]", "EC50": 17}, {"smiles": "COc1ccc(F)c(-c2cc3c(cc2F)[C@H](Oc2cccc([C@@H](CC(=O)O)C4CC4)c2)CC3)c1", "note": "[Example 39]", "EC50": 5}, {"smiles": "COc1ccc(F)c(-c2cnc3c(c2)CC[C@H]3Oc2cccc([C@H](C3CC3)[C@H](C)C(=O)O)c2)c1", "note": "[Example 40]", "EC50": 2}, {"smiles": "COc1ccc(F)c(-c2cc3c(cn2)[C@H](Oc2cccc([C@H](C4CC4)[C@H](C)C(=O)O)c2)CC3)c1", "note": "[Example 41]", "EC50": "< 0.2"}]}]}
